In test [1] the test system is CEL. Put plainly: CEL expression at the mRNA level in treated macrophages (RT-PCR). It counts as cell-based, human. The note with it: monocyte-derived macrophages cultured for 7 days, treated for 24 hours; LPS 1 μg/ml, IFN-γ 200 U/ml, oxLDL 50 μg protein/ml; cells from four donors; FIG. 4C. Here is the method: (§1) Macrophage cell culture. Mononuclear cells were isolated through a Ficoll-Hypaque discontinuous gradient (Boyum et al. 1976) from buffy coats obtained from the local blood bank (Sahlgrenska University Hospital, Göteborg, Sweden). The cells were resuspended in RPMI 1640 medium (PM Laboratories GmbH, Pasching, Austria) supplemented with 2 mmol/l glutamine, 2 mmol/l nonessential amino acids, 100 U/ml penicillin, 100 μg/ml streptomycin, and 20 mmol/l sodium pyruvate. Monocytes were obtained by allowing cells to adhere to plastic for 60 min at 37° C. Non-adhered cells were removed by washing with PBS and the adhered monocytes were used immediately or after 4 hours for experiments or left to differentiate into macrophages in supplemented RPMI1640 containing 20% heat-inactivated human serum for up to 9 days. Macrophages were then approximately 95% pure, as judged by flow cytometry. For experiments the cells were incubated for 24 h with supplemented RPMI1640 (pH 7.4) with 1 μg/mL lipopolysaccaride (LPS), interferon-gamma (γ-IFN) 200 U/mL (Sigma Aldrich, Stockholm, Sweden). The viability of cells was >95% in all incubations, as determined by Trypan blue exclusion.
Exposure of macrophages to oxidatively modified LDL. […] Protein concentration of lipoproteins was determined with the BioRad protein assay using γ-globulin as standard. […]

Test [2] concerns CEL. Nature of the test: CEL expression at the protein level in treated macrophages (Western blot). It counts as cell-based, human. The note with it: monocyte-derived macrophages cultured for 7 days, treated for 24 hours; LPS 1 μg/ml, IFN-γ 200 U/ml, oxLDL 50 μg protein/ml; cells from four donors; FIG. 4B. As for the experimental part: as §1, with “For experiments the cells were incubated for 24 h with supplemented RPMI1640 (pH 7.4) with 1 μg/mL lipopolysaccaride (LPS), interferon-gamma (γ-IFN) 200 U/mL (Sigma Aldrich, Stockholm, Sweden).” left out
Exposure of macrophages to oxidatively modified LDL. […] Protein concentration of lipoproteins was determined with the BioRad protein assay using γ-globulin as standard.
Western blot analysis. […] The primary antibodies were detected with POD-conjugated secondary IgG and ECL™ Western Blotting Detection Reagents (Amersham Biosciences), visualized on ECL™ films (Amersham Biosciences).
(In general: Immunoblotting shows a protein as a band on a membrane.)

Regarding lipopolysaccharide [LPS], the “CEL expression at the mRNA level” value with CEL [1] was “could not detect any consistent increase or decrease in CEL expression”. The “CEL expression at the protein level” value with CEL [2] is “could not detect any consistent increase or decrease in CEL expression”.

B1: interferon-gamma (protein, UniProt P01579 24-161, looked up)
Interferon gamma: QDPYVKEAENLKKYFNAGHSDVADNGTLFLGILKNWKEESDRKIMQSQIVSFYFKLFKNFKDDQSIQKSVETIKEDMNVKFFNSNKKKRDDFEKLTNYSVTDLNVQRKAIHELIQVMAELSPAAKTGKRKRSQMLFRG
notes: interferon-gamma (Sigma Aldrich) used as stimulus on macrophages
Take B1: the “CEL expression at the mRNA level” value with CEL [1] is “could not detect any consistent increase or decrease in CEL expression”. Further, the “CEL expression at the protein level” value with CEL [2] was “could not detect any consistent increase or decrease in CEL expression”.
